Source: patent US20230382869A1, “Phenyl-3,4-dihydroisoquinolin-2(1h)-yl-ethan-1-one derivatives as dopamine d1receptor positive allosteric modulators” (Eli Lilly and Company, priority 2020, published 2023)
Where two headings read alike, the source gives them in different places.

What was measured:
CYP3A4 = CYP3A4 (Homo sapiens (Human), UniProt P08684); test: Recombinant CYP phenotyping assay (fmCYP3A4_RCP); format: in vitro ADME; settings: not examined in RCP assay; worst case of 100% metabolized by CYP3A4 assumed
Procedure: The relative fraction of a compound's metabolism contributed by a given CYP, as for example CYP3A4, of the total P450 metabolism of the compound may be determined as follows:
A panel of 9 human recombinant CYPs (rCYPs) provided as Supersomes (BD Gentest, Woburn, MA), including rCYPs 1A2, 2B6, 2C8, 2C9, 2C19, 2D6, 2J2, 3A4, and 3A5, are evaluated for compound metabolism (see generally Cannady E A, et al. (2015) Evacetrapib: in vitro and clinical disposition, metabolism, excretion, and assessment of drug interaction potential with strong CYP3A and CYP2C8 inhibitors. Pharmacol Res Perspect 3:e00179). […]
in which kdep is the substrate depletion rate constant (min^−1), pmol rCYP is the lot-specific amount of rCYP in the incubation, and relative activity factor (RAF) is a relative activity factor (pmol/mg) appropriate for the rCYPs/HLMs pair. The rate constant is determined in-house by experiment, the slope determined using linear regression from the log transformed % remaining on the y-axis vs time on the x-axis (min^−1). pmol rCYP and RAF are vender supplied constenats for the supersome.
The fraction of CYP3A4-mediated metabolism (fmCYP3A4_RCP) is determined by dividing the HLM-scaled CLint of CYP3A4 by the sum of the HLM-scaled CL1nt for each P450 subtype assayed (Cannady et al., 2015).

CYP3A = test: Intrinsic clearance CLint,CYP3A,liver; format: in vitro ADME; settings: human
[1] = In vivo tolerability in normal rats; settings: broad dose range
Cytochrome P450 (CYP) = test: Fraction of CYP-mediated oxidative metabolism (fmCYP) in human hepatocytes with/without ABT; format: in vitro ADME
Procedure: The relative contribution of P450 s in the overall metabolism of a compound was determined from the clearance of the drug in an assay using human hepatocytes in the presence and absence of the pan P450 inhibitor 1-aminobenzotriazole (ABT). The intrinsic clearance was determined in cryopreserved human hepatocytes essentially as described in McGinnity D F, et al. (2004) Evaluation of fresh and cryopreserved hepatocytes as in vitro drug metabolism tools for the prediction of metabolic clearance. Drug Metab Dispos 32:1247-1253. Generally, the assay incubations contain 0.3 μM test compound and 10^6 cells/mL hepatocytes, with or without 0.5 hr. pre-incubation with ABT (1 mM). Parent compound loss is measured by LC/MS after 15, 30, 60 and 90 min. incubation. The intrinsic clearance (μL/min/10^6 cells) is calculated using the following equation for both ±ABT. The fraction of metabolism by CYP is the percentage of inhibition by ABT.
CLint=−kdep×incubation volume/10^6 cells,
in which the kdep, the substrate depletion constant (min^−1), is the slope determined using linear regression from the log transformed % remaining on the y-axis vs time on the x-axis (min^−1).

[2] = Fraction of drug unbound in human liver microsomes (fumic); format: in vitro ADME
Description: fumic is the fraction of drug unbound in human liver microsomes

[3] = Plasma and Brain Levels after oral dosing; format: in vivo, mouse; settings: for Kp uu at 1 h: ratio Cu,brain vs Cu,plasma
Procedure: Example 7, 2-(2-chloro-6-fluoro-phenyl)-1-[(1S,3R)-6-fluoro-3-(hydroxymethyl)-5-(3-hydroxy-3-methyl-butyl)-1-methyl-3,4-dihydro-1H-isoquinolin-2-yl]ethenone, was orally dosed to male mouse from 3 mg/kg to 60 mg/kg in fed condition, and the plasma and brain concentration was determined 1 hr post-dose. The fraction unbound of the compound was determined in vitro as described previously (Zamek-Gliszczynski M J, et al., Validation of 96-well equilibrium dialysis with non-radiolabeled drug for definitive measurement of protein binding and application to clinical development of highly-bound drugs, J. Pharm. Sci. (2011) 100: 2498-2507). The ratio (Kpuu) of unbound brain concentration (Cu, brain) vs. unbound plasma concertation (Cu, plasma) was determined as described previously (Raub T J, et al., Brain Exposure of Two Selective Dual CDK4 and CDK6 Inhibitors and the Antitumor Activity of CDK4 and CDK6 Inhibition in Combination with Temozolomide in an Intracranial Glioblastoma Xenograft. Drug Metab. Dispos. (2015) 43:1360-71). The data presented below in Table 3 for Example 7 are averages from 3 animals at each dose. “Con.” refers to concentration.

Q: Which results are given for `C[C@H]1c2ccc(F)c(CCC(C)(C)O)c2C[C@H](CO)N1C(=O)Cc1c(F)cccc1Cl` [Example 7, 2-(2-chloro-6-fluoro-phenyl)-1-[(1S,3R)-6-fluoro-3-(hydroxymethyl)-5-(3-hydroxy-3-methyl-butyl)-1-methyl-3,4-dihydro-1H-isoquinolin-2-yl]ethanone]?
A: fm3A4_RCP (CYP3A4): 1; microsomal CLint (CYP3A): 25.5 µL/min/mg; tolerability / toxicity in vivo [1]: generally well tolerated; route of metabolism in hepatocytes (Cytochrome P450 (CYP)): primarily metabolized through non-oxidative processes; fmCYP (Cytochrome P450 (CYP); CLint ±ABT (1 mM), 0.3 μM compound): 0.322; fractions metabolized by CYPs (Cytochrome P450 (CYP); ±ABT): 32.3%; fumic [2]: 0.392; concentration at 1 h ([3]; brain, 3 mg/kg oral, 1 hr post-dose, male mouse, fed, read-out: Brain con.): 18 nM; concentration at 1 h ([3]; brain, 6 mg/kg oral, 1 hr post-dose, male mouse, fed, read-out: Brain con.): 45.1 nM; concentration at 1 h ([3]; brain, 10 mg/kg oral, 1 hr post-dose, male mouse, fed, read-out: Brain con.): 84.9 nM; concentration at 1 h ([3]; brain, 30 mg/kg oral, 1 hr post-dose, male mouse, fed, read-out: Brain con.): 557 nM; concentration at 1 h ([3]; brain, 60 mg/kg oral, 1 hr post-dose, male mouse, fed, read-out: Brain con.): 1290 nM; Kp uu at 1 h ([3]; male, mouse, 3 mg/kg oral, 1 hr): 0.126; Kp uu at 1 h ([3]; male, mouse, 6 mg/kg oral, 1 hr): 0.143; Kp uu at 1 h ([3]; male, mouse, 10 mg/kg oral, 1 hr): 0.122; Kp uu at 1 h ([3]; male, mouse, 30 mg/kg oral, 1 hr): 0.194; Kp uu at 1 h ([3]; male, mouse, 60 mg/kg oral, 1 hr): 0.248; concentration at 1 h ([3]; male, mouse, unbound brain concentration, 3 mg/kg oral, 1 hr, read-out: Cu, brain): 0.448 nM; concentration at 1 h ([3]; male, mouse, unbound brain concentration, 6 mg/kg oral, 1 hr, read-out: Cu, brain): 1.12 nM; concentration at 1 h ([3]; male, mouse, unbound brain concentration, 10 mg/kg oral, 1 hr, read-out: Cu, brain): 2.11 nM; concentration at 1 h ([3]; male, mouse, unbound brain concentration, 30 mg/kg oral, 1 hr, read-out: Cu, brain): 13.9 nM; concentration at 1 h ([3]; male, mouse, unbound brain concentration, 60 mg/kg oral, 1 hr, read-out: Cu, brain): 32.1 nM; concentration at 1 h ([3]; male, mouse, unbound plasma concentration, 3 mg/kg oral, 1 hr, read-out: Cu, plasma): 4.97 nM; concentration at 1 h ([3]; male, mouse, unbound plasma concentration, 6 mg/kg oral, 1 hr, read-out: Cu, plasma): 9.62 nM; concentration at 1 h ([3]; male, mouse, unbound plasma concentration, 10 mg/kg oral, 1 hr, read-out: Cu, plasma): 17.1 nM; concentration at 1 h ([3]; male, mouse, unbound plasma concentration, 30 mg/kg oral, 1 hr, read-out: Cu, plasma): 70.1 nM; concentration at 1 h ([3]; male, mouse, unbound plasma concentration, 60 mg/kg oral, 1 hr, read-out: Cu, plasma): 128 nM; concentration at 1 h ([3]; plasma, 3 mg/kg oral, 1 hr post-dose, male mouse, fed, read-out: Plasma con.): 353 nM; concentration at 1 h ([3]; plasma, 6 mg/kg oral, 1 hr post-dose, male mouse, fed, read-out: Plasma con.): 682 nM; concentration at 1 h ([3]; plasma, 10 mg/kg oral, 1 hr post-dose, male mouse, fed, read-out: Plasma con.): 1210 nM; concentration at 1 h ([3]; plasma, 30 mg/kg oral, 1 hr post-dose, male mouse, fed, read-out: Plasma con.): 4980 nM; concentration at 1 h ([3]; plasma, 60 mg/kg oral, 1 hr post-dose, male mouse, fed, read-out: Plasma con.): 9080 nM
